Data on three compounds can be found in patent publication US10196360B2, “Crystal forms of bedaquiline fumarate and preparation methods therefor” (Zhejiang Hisun Pharmaceutical Co., Ltd., priority 2015, dated 2019).

Molecules are shown by their SMILES.

Data set [1] in a line: Particle size test (Mastersizer 2000). Type of data set: physicochemical. The settings on record: non-micronized, dispersant n-hexane, fumarate. How it is done:
The test conditions for the particle size involved in the present invention are: Mastersizer model: Mastersizer 2000; operation method: 20 mg of bedaquiline fumarate sample is taken, about 5.0 ml dispersant (n-hexane) is added, the sample is subjected to ultrasonication for 1.0 min, is allowed to stabilize for 0.5-1.0 min and then is tested.
Test Procedure: the Hydro2000SM injector was connected and the Small Volume Sample Dispersion Unit tachometer was turned on, then a suitable amount of ethanol was added to the sample cell to clean the detection channel of the instrument. A suitable amount of n-hexane (dispersant) was added to the dispersion cup, a suitable amount of n-hexane (dispersant) was inlet into the instrument to exhaust gas, the stirring rate was set to 2950 rpm, optical correction and background measurement were carried out.
The suspension was added to the sample cell until the opacity was between 15% to 20%, the suspension was allowed to stabilize for 0.5-1.0 min, the measurement time was 4 sec, the test results was saved automatically by the system.

A short description of data set [2]: Solubility of the crystal forms in different solvents at 50° C. Type of data set: physicochemical.
[3] abbreviates: N,N-dimethylformamide, fumarate.

Regarding `COc1nc2ccc(Br)cc2cc1[C@@H](c1ccccc1)[C@@](O)(CCN(C)C)c1cccc2ccccc12.O=C(O)/C=C/C(=O)O` [Crystal form III, (1R,2S)-1-(6-bromo-2-methoxyquinolin-3-yl)-4-dimethylamino-1-phenyl-2-(1-naphthyl)-2-butanol fumarate], in data set [1], the “D (0.1)” value was determined as 10.034 um. The “D (0.5)” value in data set [1] is on record as 33.721 um. In addition, the “D (0.9)” value in data set [1] came out at 68.295 um. Further, the solubility was 6 g/mL in data set [2] (Methanol, fumarate); 3 g/mL in data set [2] (setting [3]); 3 g/mL in data set [2] (Tetrahydrofuran, fumarate); “insoluble” in data set [2] (Water).
As for `COc1nc2ccc(Br)cc2cc1[C@@H](c1ccccc1)[C@@](O)(CCN(C)C)c1cccc2ccccc12.O=C(O)/C=C/C(=O)O` [Crystal form I, (1R,2S)-1-(6-bromo-2-methoxyquinolin-3-yl)-4-dimethylamino-1-phenyl-2-(1-naphthyl)-2-butanol fumarate], in data set [1], the “D (0.1)” value was 4.991 um. Further, the “D (0.5)” value in data set [1] is given as 16.303 um. In data set [1], the “D (0.9)” value turned out to be 37.967 um. The solubility was 2 g/mL in data set [2] (Methanol, fumarate); 1 g/mL in data set [2] (setting [3]); 1 g/mL in data set [2] (Tetrahydrofuran, fumarate); “insoluble” in data set [2] (Water).
For the compound `COc1nc2ccc(Br)cc2cc1[C@@H](c1ccccc1)[C@@](O)(CCN(C)C)c1cccc2ccccc12.O=C(O)/C=C/C(=O)O` [Crystal form II, (1R,2S)-1-(6-bromo-2-methoxyquinolin-3-yl)-4-dimethylamino-1-phenyl-2-(1-naphthyl)-2-butanol fumarate], the “D (0.1)” value in data set [1] is 3.146 um. Moreover, in data set [1], the “D (0.5)” value stood at 12.646 um. Further, the “D (0.9)” value in data set [1] worked out at 37.019 um. The solubility in data set [2] (Methanol, fumarate) is 6 g/mL; in data set [2] (setting [3]) it was 2 g/mL; in data set [2] (Tetrahydrofuran, fumarate), 5 g/mL; in data set [2] (Water), “insoluble”.

By solubility is commonly meant how much of the substance goes into solution per volume.
